Literature values, collected in patent US20050153276A1 (priority 2001, published 2005).

System: human hepatocyte and neuroblastoma cells
Conditions: cited from earlier work

| Structure (SMILES) | effect on cell metabolism (acidification rate) |
| --- | --- |
| CCOP(=S)(OCC)Oc1ccc([N+](=O)[O-])cc1 [parathion] | opposite effects on hepatocyte and neuroblastoma cell metabolism |
| CCOP(=O)(OCC)Oc1ccc([N+](=O)[O-])cc1 [paraoxon] | opposite effects on hepatocyte and neuroblastoma cell metabolism |
